Results taken from ChEMBL document CHEMBL3797114, “Design, synthesis and biological evaluation of 6-substituted pyrrolo[2,3-d]pyrimidines as dual inhibitors of TS and AICARFTase and as potential antitumor agents” (Eur J Med Chem, 2016).
Calls of active or inactive are those of the source. The calls are words filed in the database; no cut-off is given here.

Legend:
KB [1] = test: Antiproliferative activity against human KB cells after 72 hrs by MTT assay in presence of leucovorin; type: functional, cell-based
[2] = Antiproliferative activity against human SW620 cells after 72 hrs by MTT assay in presence of leucovorin; type: functional, cell-based; settings: SW-620, 72 h
A549 = test: Antiproliferative activity against human A549 cells after 72 hrs by MTT assay in presence of leucovorin; type: functional, cell-based; settings: A549, 72 h
KB [3] = test: Inhibition of colony formation in human KB cells at 1 uM measured after 10 to 14 days by methylene blue staining based assay presence of leucovorin; type: functional
[4] = biological target: Bifunctional purine biosynthesis protein ATIC (Homo sapiens) (UniProt P31939); test: Inhibition of AICARFTase in human SW620 cells assessed as growth inhibition at 0.001 to 10 uM coincubated with AICA; type: cell-based; settings: SW-620
[5] = biological target: Thymidylate synthase/AICAR transformylase (Homo sapiens) (UniProt P04818+P31939); test: Inhibition of thymidylate synthase/AICARFTase in human SW620 cells assessed as growth inhibition at 0.001 to 10 uM coincubated with AICA and […]; type: cell-based; settings: SW-620
[6] = biological target: Thymidylate synthase (Homo sapiens) (UniProt P04818); test: Inhibition of thymidylate synthase in human SW620 cells assessed as growth inhibition at 0.001 to 10 uM coincubated with excessive thymidine; type: cell-based; settings: SW-620
[7] = biological target: GAR transformylase/AICAR transformylase (Homo sapiens) (UniProt P31939+P22102); test: Inhibition of GARFTase/AICARFTase in human SW620 cells assessed as growth inhibition at 0.001 to 10 uM coincubated with adenosine; type: cell-based; settings: SW-620
[8] = biological target: Thymidylate synthase/GAR transformylase/AICAR transformylase (Homo sapiens) (UniProt P04818+P31939+P22102); test: Inhibition of thymidylate synthase/GARFTase/AICARFTase in human SW620 cells assessed as growth inhibition at 0.001 to 10 uM coincubated with thymidine and adenosine; type: cell-based; settings: SW-620
[9] = Cell cycle arrest in human SW620 cells assessed as accumulation at S phase at 10 uM after 96 hrs by propidium iodide staining based flow cytometry in presence of leucovorin (reference value: 27.3 %); type: functional; settings: SW-620
[10] = Cell cycle arrest in human SW620 cells assessed as accumulation at G2 phase at 10 uM after 96 hrs by propidium iodide staining based flow cytometry in presence of leucovorin (reference value: 10.3 %); type: functional; settings: SW-620
[11] = Cell cycle arrest in human SW620 cells assessed as accumulation at G1 phase at 10 uM after 96 hrs by propidium iodide staining based flow cytometry in presence of leucovorin (reference value: 62.4 %); type: functional; settings: SW-620
SW-620 [12] = test: Induction of apoptosis in human SW620 cells assessed as viable cells at 10 uM after 48 hrs by annexin V-FITC/PI staining based flow cytometry in presence of leucovorin (reference value: 84.0 %); type: functional; settings: SW-620, 48 h, read-out: Activity
SW-620 [13] = test: Induction of apoptosis in human SW620 cells assessed as early apoptotic cells at 10 uM after 48 hrs by annexin V-FITC/PI staining based flow cytometry in presence of leucovorin (reference value: 0.6 %); type: functional
SW-620 [14] = test: Induction of apoptosis in human SW620 cells assessed as late apoptotic cells at 10 uM after 48 hrs by annexin V-FITC/PI staining based flow cytometry in presence of leucovorin (reference value: 6.4 %); type: functional
SW-620 [15] = test: Induction of apoptosis in human SW620 cells assessed as necrotic cells at 10 uM after 48 hrs by annexin V-FITC/PI staining based flow cytometry in presence of leucovorin (reference value: 9 %); type: functional

Sequence of GAR transformylase/AICAR transformylase (Homo sapiens) (P22102 whole entry, looked up): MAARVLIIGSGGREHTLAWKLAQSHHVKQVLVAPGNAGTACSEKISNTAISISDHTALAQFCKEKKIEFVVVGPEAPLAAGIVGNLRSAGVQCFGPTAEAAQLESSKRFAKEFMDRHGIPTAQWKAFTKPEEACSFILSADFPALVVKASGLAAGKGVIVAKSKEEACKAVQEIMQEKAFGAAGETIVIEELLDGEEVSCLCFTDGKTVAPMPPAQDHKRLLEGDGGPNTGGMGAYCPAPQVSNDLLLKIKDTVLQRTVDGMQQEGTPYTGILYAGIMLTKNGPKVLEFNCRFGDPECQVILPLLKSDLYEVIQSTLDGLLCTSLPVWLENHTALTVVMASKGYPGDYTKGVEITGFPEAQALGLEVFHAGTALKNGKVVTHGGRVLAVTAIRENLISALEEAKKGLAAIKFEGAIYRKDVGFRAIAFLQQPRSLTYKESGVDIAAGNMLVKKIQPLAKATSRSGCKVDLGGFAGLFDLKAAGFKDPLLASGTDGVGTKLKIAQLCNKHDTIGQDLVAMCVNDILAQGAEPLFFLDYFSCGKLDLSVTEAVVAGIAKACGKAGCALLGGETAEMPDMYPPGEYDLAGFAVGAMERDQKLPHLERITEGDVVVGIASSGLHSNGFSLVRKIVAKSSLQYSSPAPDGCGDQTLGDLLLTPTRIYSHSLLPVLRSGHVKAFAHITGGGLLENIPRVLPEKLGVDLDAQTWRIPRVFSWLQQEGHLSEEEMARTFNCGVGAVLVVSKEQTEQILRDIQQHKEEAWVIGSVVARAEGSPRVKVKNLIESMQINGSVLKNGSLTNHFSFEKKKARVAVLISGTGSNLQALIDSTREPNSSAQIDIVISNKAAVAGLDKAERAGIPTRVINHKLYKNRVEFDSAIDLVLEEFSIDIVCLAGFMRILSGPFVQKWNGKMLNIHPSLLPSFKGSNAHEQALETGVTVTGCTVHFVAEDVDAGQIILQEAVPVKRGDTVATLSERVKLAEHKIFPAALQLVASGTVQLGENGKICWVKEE
Sequence of GAR transformylase/AICAR transformylase (Homo sapiens) (P31939 whole entry, looked up): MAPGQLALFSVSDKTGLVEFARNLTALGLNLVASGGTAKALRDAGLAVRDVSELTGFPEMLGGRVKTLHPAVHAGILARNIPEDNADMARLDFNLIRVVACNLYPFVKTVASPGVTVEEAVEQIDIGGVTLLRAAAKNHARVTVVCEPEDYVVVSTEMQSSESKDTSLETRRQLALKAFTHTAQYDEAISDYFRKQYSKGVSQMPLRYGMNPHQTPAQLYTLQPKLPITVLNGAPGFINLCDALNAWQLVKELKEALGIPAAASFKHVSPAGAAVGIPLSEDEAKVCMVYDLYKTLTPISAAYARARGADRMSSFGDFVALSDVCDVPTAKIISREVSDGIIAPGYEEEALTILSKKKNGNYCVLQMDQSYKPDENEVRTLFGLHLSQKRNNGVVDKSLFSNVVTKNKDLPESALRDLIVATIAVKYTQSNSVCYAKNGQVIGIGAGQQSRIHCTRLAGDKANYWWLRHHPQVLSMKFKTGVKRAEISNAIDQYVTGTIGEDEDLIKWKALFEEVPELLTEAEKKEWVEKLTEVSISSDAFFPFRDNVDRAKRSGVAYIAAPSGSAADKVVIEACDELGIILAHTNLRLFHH
Sequence of Bifunctional purine biosynthesis protein ATIC (Homo sapiens) (P31939 whole entry, looked up): as above
Sequence of Thymidylate synthase/GAR transformylase/AICAR transformylase (Homo sapiens) (P04818 whole entry, looked up): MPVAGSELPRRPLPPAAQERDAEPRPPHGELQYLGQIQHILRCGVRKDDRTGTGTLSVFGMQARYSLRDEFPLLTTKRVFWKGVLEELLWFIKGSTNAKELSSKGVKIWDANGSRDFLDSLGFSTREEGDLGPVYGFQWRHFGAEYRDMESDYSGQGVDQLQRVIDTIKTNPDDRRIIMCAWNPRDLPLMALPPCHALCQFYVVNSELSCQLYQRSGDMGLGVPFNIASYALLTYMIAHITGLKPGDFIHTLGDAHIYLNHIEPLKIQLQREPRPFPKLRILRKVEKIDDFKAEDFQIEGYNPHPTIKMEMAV
Sequence of Thymidylate synthase/GAR transformylase/AICAR transformylase (Homo sapiens) (P22102 whole entry, looked up): as the sequence (P22102 whole entry, looked up) above
Sequence of Thymidylate synthase/GAR transformylase/AICAR transformylase (Homo sapiens) (P31939 whole entry, looked up): as the sequence (P31939 whole entry, looked up) above
Sequence of Thymidylate synthase/AICAR transformylase (Homo sapiens) (P04818 whole entry, looked up): as the sequence (P04818 whole entry, looked up) above
Sequence of Thymidylate synthase/AICAR transformylase (Homo sapiens) (P31939 whole entry, looked up): as the sequence (P31939 whole entry, looked up) above
Sequence of Thymidylate synthase (Homo sapiens) (P04818 2-313 limits assumed): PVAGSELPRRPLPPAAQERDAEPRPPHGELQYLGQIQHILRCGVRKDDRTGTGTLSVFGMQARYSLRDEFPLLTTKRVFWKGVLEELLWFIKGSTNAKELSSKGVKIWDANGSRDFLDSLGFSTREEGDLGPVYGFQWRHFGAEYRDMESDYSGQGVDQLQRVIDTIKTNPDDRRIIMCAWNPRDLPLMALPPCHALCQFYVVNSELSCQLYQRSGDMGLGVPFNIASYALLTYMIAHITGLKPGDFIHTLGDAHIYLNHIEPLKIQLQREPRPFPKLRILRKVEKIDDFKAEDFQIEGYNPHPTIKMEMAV

Structure (SMILES)	IC50 (KB [1])	IC50 (A549)	IC50 [2]	Activity [9]	Activity [10]	Activity [11]	other results
CN(Cc1cnc2nc(N)nc(N)c2n1)c1ccc(C(=O)N[C@@H](CCC(=O)O)C(=O)O)cc1 [METHOTREXATE]		0.99 µM	0.013 µM				
Nc1nc2[nH]c(CCSCC(=O)NCc3ccccn3)cc2c(=O)[nH]1	28.4 µM	14.1 µM	36.1 µM				
Nc1nc2[nH]c(CCSCC(=O)NCc3cccnc3)cc2c(=O)[nH]1	37.5 µM	56.6 µM	25.3 µM				
Nc1nc2[nH]c(CCSCCC(=O)NCc3ccccn3)cc2c(=O)[nH]1	8.93 µM	77.3 µM	11.9 µM				
Nc1nc2[nH]c(CCSCC(=O)NCc3ccncc3)cc2c(=O)[nH]1	14.1 µM	42.4 µM	22.7 µM				

Continued, in another order:

IC50 (KB [1])	IC50 (A549)	Structure (SMILES)	IC50 [2]	Activity [9]	Activity [10]	Activity [11]	other results
45.6 µM	7.87 µM	Nc1nc2[nH]c(CCSCCC(=O)NCc3ccncc3)cc2c(=O)[nH]1	24.8 µM				
0.324 µM	0.713 µM	Nc1nc2[nH]c(CCSCCC(=O)N[C@@H](CCC(=O)O)C(=O)O)cc2c(=O)[nH]1	0.387 µM	39.2%	4.5%	56.3%	inhibition at 1 µM (KB [3]): 80%; growth inhibition (GI) [4]: inactive; growth inhibition (GI) [5]: inactive; growth inhibition (GI) [6]: inactive; growth inhibition (GI) [7]: inactive; growth inhibition (GI) [8]: inactive; viability at 10 µM (SW-620 [12]): 22.1%; Activity (SW-620 [13]): 1.5%; Activity (SW-620 [14]): 34.8%; Activity (SW-620 [15]): 41.6%
0.373 µM	0.668 µM	Nc1nc2[nH]c(CCSCC(=O)N[C@@H](CCC(=O)O)C(=O)O)cc2c(=O)[nH]1	0.442 µM				
0.648 µM	1.07 µM	Nc1nc2[nH]c(CCSCCC(=O)NCc3cccnc3)cc2c(=O)[nH]1	0.665 µM	24.9%	8.6%	66.5%	inhibition at 1 µM (KB [3]): 70%; viability at 10 µM (SW-620 [12]): 51.8%; Activity (SW-620 [13]): 1.1%; Activity (SW-620 [14]): 25.1%; Activity (SW-620 [15]): 22%
	1.26 µM	Nc1nc2[nH]cc(CCc3ccc(C(=O)N[C@@H](CCC(=O)O)C(=O)O)cc3)c2c(=O)[nH]1 [PEMETREXED]	0.08 µM	54.2%	0%	45.8%	
